In patent publication US6645914B1, “Surfactant-ammonium sulfate adjuvant composition for enhancing efficacy of herbicides” (NDSU-Research Foundation, priority 2002, dated 2003):
Where a name gives a salt, the structure may show the parent alone.

How the values were obtained:
Format in all cases: in vivo
[1] = test system: Kochia (Kochia scoparia L.); assay: Greenhouse kochia fresh weight reduction from 2,4-D, dicamba, bentazon as influenced by adjuvants; details: no adjuvant
Method: Kochia (Kochia scoparia L.) was grown in plastic cones containing a commercial peat-based greenhouse mixture with 5 plants per cone. All growing conditions and herbicide application procedures were similar as explained in Example 2. Herbicides were applied to kochia at the 4 to 6-leaf stage. Herbicide formulation and rates of herbicides and adjuvants are specified in Table 7. Plants were evaluated for herbicide injury and fresh weight reduction 14 days after herbicide application. Data presented are the means of two experiments with four replicates per experiment.
The adjuvants, Activator 90. RTM and Composition 1, were added into soft and hard water carriers (volume per volume concentrations shown in TABLE 7) with 2,4-D at 220 g ae/ha, dicamba at 75 g ae/ha, or bentazon at 200 g ai/ha to prepare the final aqueous spray mixture applied at 80 L/ha on 4 to 6-leaf kochia. TABLE 7 includes the results of assessment made 2 weeks after treatment.

[2] = test system: Wheat (Triticum aestivum L.); assay: Greenhouse wheat fresh weight reduction from glyphosate as influenced by adjuvants; details: adjuvant 1%
Method: (§1) Wheat (Triticum aestivum L.), velvetleaf (Abutilion theophrasti Medicus), Roundup Ready.RTM soybean (Glycine max (L.) Merr.), and Roundup Ready.RTM corn (Zea mays L.) were grown in plastic cones containing a commercial peat-based greenhouse mixture. Plants were thinned 1 wk after emergence to seven wheat, three velvetlaf, or one corn or soybean per cone and were watered and fertilized as needed for healthy growth. Natural daylight was supplemented for 16 h photoperiod with metal halide lamps with the light intensity of 450 μE/m^2/s. The greenhouse was maintained at 20° C. at night and 25 ±5° C. during the day. Glyphosate with adjuvants was applied to three-leaf wheat and corn, first-pair leaf velvetleaf, and to first-trifoliolate-leaf soybean using a cabinet laboratory sprayer that delivered 80 L/ha through a 8001 flat fan nozzle at 280 kPa generated by compressed air. Distilled water, Fargo tap water (soft), and two well waters from the Devils Lake, ND, area (hard and high sodium content, respectively) were used as spray carriers. Ion concentrations in these waters are described in TABLE 1. Formulation type and rates of glyphosate and adjuvants are specified in each table. In all greenhouse studies, plants were evaluated for herbicide injury and adjuvant efficacy 14 days after herbicide application. Data presented are the means of two experiments with four replicates per experiment.
The adjuvants, ammonium sulfate, Activator 90. RTM, and mixtures thereof, Surfate.RTM, and Composition 1 were added into water [weight (for solids) or volume (for liquids) per volume concentrations shown in TABLE 2] with glyphosate at 100 g ae/ha to prepare the final aqueous spray mixture applied at 80 L/ha on 2 to 3 leaf wheat. Calcium chloride was added to distilled water to get 0, 125, 250, and 500 mg/L calcium cations. TABLE 2 includes the results of assessment made 2 weeks after treatment.
The adjuvants, Activator 90. RTM, MON 0818, Atplus GTM7, Atplus GTM10 and their mixtures with ammonium sulfate, Surfate.RTM, and Composition 1 were added into three water carriers [weight (for solids) or volume (for liquids) per volume concentrations shown in TABLE 3] with glyphosate (100 g ae/ha) to prepare the final aqueous spray mixture applied at 80 L/ha on 2 to 3 leaf wheat. TABLE 3 includes the results of assessment made 2 weeks after treatment.
The adjuvants, ammonium sulfate, Activator 90.RTM, and mixtures thereof, Surfate.RTM, and Composition 1 were added into two water carriers (weight [for solids] or volume [for liquids] per volume concentrations shown in TABLE 4) with three glyphosate formulations, all at 125 g ae/ha, to.prepare the final aqueous spray mixture applied at 80 L/ha on 2 to 3 leaf wheat. TABLE 4 includes the results of assessment made 2 weeks after treatment.
Various iminodipropionate, betaine, imidazoline, and amine oxide amphoteric surfactants applied with ammonium sulfate and adjuvant formulations containing surfactant and ammonium sulfate, including Composition 1 of present invention, were added into hard water carrier [weight (for solids) or volume (for liquids) per volume concentrations shown in TABLE 5] with glyphosate at 125 g ae/ha to prepare the final aqueous spray mixture applied at 80 L/ha on 2 to 3 leaf wheat. TABLE 5 includes the results of assessment made 2 weeks after treatment.

[3] = test system: velvetleaf (Abutilion theophrasti Medicus); assay: Greenhouse velvetleaf fresh weight reduction from glyphosate as influenced by adjuvants; details: glyphosate (Roundup Ultra Max.RTM) 150 g ae/ha; hard water (Devils Lake, ND, No. 2 - well water); adjuvant 1%
Method: as §1, with “experiment. […]” for “experiment.”

Structure (SMILES): O=C(O)COc1ccc(Cl)cc1Cl [2,4-D-dimethylamine salt, (2,4-dichlorophenoxy)acetic acid]
- percent fresh weigh reduction ([1]; 2,4-D-dimethylamine salt 220 g ae/ha, water Devils Lake No. 1 (well)): 10%
- percent fresh weigh reduction ([1]; 2,4-D-dimethylamine salt 220 g ae/ha, water Fargo, ND (tap)): 20%

Structure (SMILES): CC(C)N1C(=O)c2ccccc2NS1(=O)=O [bentazon-sodium salt, 3-(1-methylethyl)-(1H)-2,1,3-benzothiadiazin-4(3H)-one 2,2-dioxide]
- percent fresh weigh reduction ([1]; bentazon-sodium salt 200 g ai/ha, water Devils Lake No. 1 (well)): 5%
- percent fresh weigh reduction ([1]; bentazon-sodium salt 200 g ai/ha, water Fargo, ND (tap)): 20%

Structure (SMILES): N.N.O=S(=O)(O)O [Ammonium sulfate]
- % fresh weight reduction ([2]; Roundup Custom.RTM 125 g ae/ha, water Devils Lake No. 1 (well)): 23%
- % fresh weight reduction ([2]; Roundup Custom.RTM 125 g ae/ha, water Fargo (tap)): 68%
- % fresh weight reduction ([2]; Roundup Ultra Max.RTM 125 g ae/ha, water Devils Lake No. 1 (well)): 43%
- % fresh weight reduction ([2]; Roundup Ultra Max.RTM 125 g ae/ha, water Fargo (tap)): 54%
- % fresh weight reduction ([2]; Touchdown.RTM 125 g ae/ha, water Devils Lake No. 1 (well)): 24%
- % fresh weight reduction ([2]; Touchdown.RTM 125 g ae/ha, water Fargo (tap)): 71%
- % fresh weight reduction ([2]; glyphosate 100 g ae/ha (Roundup Ultra Max.RTM), Ca2+ 0 mg/L, 2 weeks after treatment): 65%
- % fresh weight reduction ([2]; glyphosate 100 g ae/ha (Roundup Ultra Max.RTM), Ca2+ 125 mg/L, 2 weeks after treatment): 72%
- % fresh weight reduction ([2]; glyphosate 100 g ae/ha (Roundup Ultra Max.RTM), Ca2+ 250 mg/L, 2 weeks after treatment): 73%
- % fresh weight reduction ([2]; glyphosate 100 g ae/ha (Roundup Ultra Max.RTM), Ca2+ 500 mg/L, 2 weeks after treatment): 64%
- Fresh weight reduction % [3]: 54%

Structure (SMILES): COc1c(Cl)ccc(Cl)c1C(=O)O [dicamba-sodium salt, 3,6-dichloro-2-methoxybenzoic acid]
- percent fresh weigh reduction ([1]; dicamba-sodium salt 75 g ae/ha, water Devils Lake No. 1 (well)): 9%
- percent fresh weigh reduction ([1]; dicamba-sodium salt 75 g ae/ha, water Fargo, ND (tap)): 12%
